These are literature values, as cited in patent publication US20180271919A1, “PROBIOTIC COMPOSITION AT LEAST COMPRISING BIFIDOBACTERIUM BIFIDUM W23 AND CAPABLE OF CONTROLLING INTESTINAL BARRIER FUNCTION” (Winclove Holding B.V., priority 2015, published 2018).

In this series the test system is patients with schizophrenia. To be noted: patients with schizophrenia prescribed the drug.

For the compound `CN1CCN(C2=Nc3cc(Cl)ccc3Nc3ccccc32)CC1` [clozapine], the “Rate of metabolic syndrome” value was 52%.
